PubChem BioAssay (NCI)
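Test compounds were applied to cells in 96-well plates for 48 hours at 5 doses. Here, GI50 denotes the concentration required for 50% inhibition of growth. Definition used: TGI = concentration required for complete inhibition of growth.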

Key:
Test in all cases: NCI anticancer screen, dose series, 48 h
[1] = tested on: COLO 205 colon
[2] = tested on: SK-MEL-28 melanoma
[3] = tested on: MALME-3M melanoma
[4] = tested on: DU-145 prostate
[5] = tested on: UACC-257 melanoma
[6] = tested on: SF-539 CNS
[7] = tested on: OVCAR-5 ovarian
[8] = tested on: M14 melanoma
[9] = tested on: IGROV1 ovarian
[10] = tested on: HCT-15 colon
[11] = tested on: UACC-62 melanoma
[12] = tested on: HOP-62 NSCLC
[13] = tested on: BT-549 breast
[14] = tested on: UO-31 renal
[15] = tested on: 786-0 renal
[16] = tested on: ACHN renal
[17] = tested on: HT29 colon
[18] = tested on: KM12 colon
[19] = tested on: HCT-116 colon
[20] = tested on: SN12C renal
[21] = tested on: SW-620 colon
[22] = tested on: OVCAR-4 ovarian
[23] = tested on: SK-MEL-5 melanoma
[24] = tested on: NCI-H23 lung
[25] = tested on: NCI-H226 lung
[26] = tested on: SK-MEL-2 melanoma
[27] = tested on: U251 CNS
[28] = tested on: SNB-19 CNS
[29] = tested on: TK-10 renal
[30] = tested on: CCRF-CEM leukemia
[31] = tested on: OVCAR-8 ovarian
[32] = tested on: PC-3 prostate
[33] = tested on: SK-OV-3 ovarian
[34] = tested on: SNB-75 CNS
[35] = tested on: LOX IMVI melanoma
[36] = tested on: SF-268 CNS
[37] = tested on: RXF 393 renal
[38] = tested on: HOP-92 NSCLC
[39] = tested on: T-47D breast
[40] = tested on: SR leukemia
[41] = tested on: K-562 leukemia
[42] = tested on: MDA-MB-231 breast
[43] = tested on: NCI/ADR-RES ovarian
[44] = tested on: MOLT-4 leukemia
[45] = tested on: HL-60(TB) leukemia
[46] = tested on: NCI-H460 lung
[47] = tested on: OVCAR-3 ovarian
[48] = tested on: A549 NSCLC
[49] = tested on: A498 renal
[50] = tested on: MCF7 breast

COc1ccc(/C=C2/CCOC2=O)cc1
GI50 [1]: > 100 µM | TGI [1]: > 100 µM | GI50 [2]: > 100 µM | TGI [2]: > 100 µM | GI50 [3]: > 100 µM | TGI [3]: > 100 µM | GI50 [4]: > 100 µM | TGI [4]: > 100 µM | GI50 [5]: > 100 µM | TGI [5]: > 100 µM | GI50 [6]: > 100 µM | TGI [6]: > 100 µM | GI50 [7]: > 100 µM | TGI [7]: > 100 µM | GI50 [8]: > 100 µM | TGI [8]: > 100 µM | GI50 [9]: > 100 µM | TGI [9]: > 100 µM | GI50 [10]: > 100 µM | TGI [10]: > 100 µM | GI50 [11]: > 100 µM | TGI [11]: > 100 µM | GI50 [12]: > 100 µM | TGI [12]: > 100 µM | GI50 [13]: > 100 µM | TGI [13]: > 100 µM | GI50 [14]: 49.8 µM | TGI [14]: > 100 µM | GI50 [15]: > 100 µM | TGI [15]: > 100 µM | GI50 [16]: > 100 µM | TGI [16]: > 100 µM | GI50 [17]: > 100 µM | TGI [17]: > 100 µM | GI50 [18]: > 100 µM | TGI [18]: > 100 µM | GI50 [19]: > 100 µM | TGI [19]: > 100 µM | GI50 [20]: > 100 µM | TGI [20]: > 100 µM | GI50 [21]: > 100 µM | TGI [21]: > 100 µM | GI50 [22]: > 100 µM | TGI [22]: > 100 µM | GI50 [23]: > 100 µM | TGI [23]: > 100 µM | GI50 [24]: > 100 µM | TGI [24]: > 100 µM | GI50 [25]: > 100 µM | TGI [25]: > 100 µM | GI50 [26]: > 100 µM | TGI [26]: > 100 µM | GI50 [27]: > 100 µM | TGI [27]: > 100 µM | GI50 [28]: > 100 µM | TGI [28]: > 100 µM | GI50 [29]: > 100 µM | TGI [29]: > 100 µM | GI50 [30]: > 100 µM | TGI [30]: > 100 µM | GI50 [31]: > 100 µM | TGI [31]: > 100 µM | GI50 [32]: > 100 µM | TGI [32]: > 100 µM | GI50 [33]: > 100 µM | TGI [33]: > 100 µM | GI50 [34]: > 100 µM | TGI [34]: > 100 µM | GI50 [35]: > 100 µM | TGI [35]: > 100 µM | GI50 [36]: > 100 µM | TGI [36]: > 100 µM | GI50 [37]: > 100 µM | TGI [37]: > 100 µM | GI50 [38]: > 100 µM | TGI [38]: > 100 µM | GI50 [39]: > 100 µM | TGI [39]: > 100 µM | GI50 [40]: > 100 µM | TGI [40]: > 100 µM | GI50 [41]: > 100 µM | TGI [41]: > 100 µM | GI50 [42]: > 100 µM | TGI [42]: > 100 µM | GI50 [43]: > 100 µM | TGI [43]: > 100 µM | GI50 [44]: > 100 µM | TGI [44]: > 100 µM | GI50 [45]: > 100 µM | TGI [45]: > 100 µM | GI50 [46]: > 100 µM | TGI [46]: > 100 µM | GI50 [47]: > 100 µM | TGI [47]: > 100 µM | GI50 [48]: > 100 µM | TGI [48]: > 100 µM | GI50 [49]: 14.9 µM | TGI [49]: > 100 µM | GI50 [50]: > 100 µM | TGI [50]: > 100 µM
